According to paper PMC12090182, “Repurposing of the RIPK1-Selective Benzo[1,4]oxazepin-4-one Scaffold for the Development of a Type III LIMK1/2 Inhibitor” (ACS Chemical Biology, 2025):

Columns and labels:
Assay in all cases: biochemical
Assay type in all cases: binding
[1] = biological target: 468 kinases including some pathogenic mutants (Homo sapiens, UniProt P15056); details: BRAF (Entrez BRAF), 100 nM; read-out: Percent Control
[2] = biological target: 468 kinases including some pathogenic mutants (Homo sapiens, UniProt P07949, V804M); details: read-out: Percent Control
[3] = biological target: 468 kinases including some pathogenic mutants (Homo sapiens, UniProt O14965); details: AURKA (Entrez AURKA), 100 nM; read-out: Percent Control
468 kinases including some pathogenic mutants (Homo sapiens, UniProt O14965), sequence (O14965 whole entry, change not shown): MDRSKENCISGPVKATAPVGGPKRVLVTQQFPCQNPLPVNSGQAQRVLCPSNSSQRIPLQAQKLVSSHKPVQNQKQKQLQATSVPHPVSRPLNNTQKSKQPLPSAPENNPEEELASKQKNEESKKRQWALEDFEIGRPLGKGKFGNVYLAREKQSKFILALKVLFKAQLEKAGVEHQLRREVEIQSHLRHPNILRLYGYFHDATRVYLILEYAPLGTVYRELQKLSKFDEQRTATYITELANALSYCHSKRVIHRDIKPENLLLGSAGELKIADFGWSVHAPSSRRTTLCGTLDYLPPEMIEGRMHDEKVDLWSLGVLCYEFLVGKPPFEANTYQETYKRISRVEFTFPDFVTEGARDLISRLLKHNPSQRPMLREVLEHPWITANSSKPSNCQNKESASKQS

[4] = biological target: 468 kinases including some pathogenic mutants (Homo sapiens, UniProt Q13557); details: CAMK2D (Entrez CAMK2D), 100 nM; read-out: Percent Control
[5] = biological target: 468 kinases including some pathogenic mutants (Homo sapiens, UniProt Q13043); details: MST1 (Entrez STK4), 100 nM; read-out: Percent Control
[6] = biological target: 468 kinases including some pathogenic mutants (Homo sapiens, UniProt Q9H1R3); details: MYLK2 (Entrez MYLK2), 100 nM; read-out: Percent Control
[7] = biological target: 468 kinases including some pathogenic mutants (Homo sapiens, UniProt O75747); details: PIK3C2G (Entrez PIK3C2G), 100 nM; read-out: Percent Control
[8] = biological target: 468 kinases including some pathogenic mutants (Homo sapiens, UniProt Q9UBE8); details: NLK (Entrez NLK), 100 nM; read-out: Percent Control
[9] = biological target: 468 kinases including some pathogenic mutants (Homo sapiens, UniProt O15197); details: EPHB6 (Entrez EPHB6), 100 nM; read-out: Percent Control
[10] = biological target: 468 kinases including some pathogenic mutants (Homo sapiens, UniProt Q16539); details: p38-alpha (Entrez MAPK14), 1000 nM; read-out: Percent Control
468 kinases including some pathogenic mutants (Homo sapiens, UniProt Q16539), sequence (Q16539 whole entry, change not shown): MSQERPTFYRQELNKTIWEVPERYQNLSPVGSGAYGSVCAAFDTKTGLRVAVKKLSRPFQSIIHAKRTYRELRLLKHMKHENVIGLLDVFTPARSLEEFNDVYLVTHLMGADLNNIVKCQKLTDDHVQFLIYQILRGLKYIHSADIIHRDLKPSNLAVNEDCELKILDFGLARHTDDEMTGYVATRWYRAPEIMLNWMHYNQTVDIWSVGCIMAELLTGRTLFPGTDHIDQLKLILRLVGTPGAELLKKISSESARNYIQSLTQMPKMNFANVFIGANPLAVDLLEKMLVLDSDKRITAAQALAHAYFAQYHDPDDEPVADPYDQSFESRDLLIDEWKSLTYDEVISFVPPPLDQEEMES

[11] = biological target: 468 kinases including some pathogenic mutants (Homo sapiens, UniProt P21709); details: EPHA1 (Entrez EPHA1), 100 nM; read-out: Percent Control
[12] = biological target: 468 kinases including some pathogenic mutants (Homo sapiens, UniProt Q8NEB9); details: VPS34 (Entrez PIK3C3), 1000 nM; read-out: Percent Control
[13] = biological target: 468 kinases including some pathogenic mutants (Homo sapiens, UniProt P78356); details: PIP5K2B (Entrez PIP4K2B), 100 nM; read-out: Percent Control
[14] = biological target: 468 kinases including some pathogenic mutants (Homo sapiens, UniProt Q8NFD2); details: ANKK1 (Entrez ANKK1), 100 nM; read-out: Percent Control
[15] = biological target: 468 kinases including some pathogenic mutants (Homo sapiens, UniProt Q9H2X6); details: HIPK2 (Entrez HIPK2), 100 nM; read-out: Percent Control
[16] = biological target: 468 kinases including some pathogenic mutants (Homo sapiens, UniProt P09619); details: PDGFRB (Entrez PDGFRB), 100 nM; read-out: Percent Control
[17] = biological target: 468 kinases including some pathogenic mutants (Homo sapiens, UniProt P57078); details: RIPK4 (Entrez RIPK4), 100 nM; read-out: Percent Control
[18] = biological target: 468 kinases including some pathogenic mutants (Homo sapiens, UniProt Q13131); details: AMPK-alpha1 (Entrez PRKAA1), 100 nM; read-out: Percent Control
[19] = biological target: 468 kinases including some pathogenic mutants (Homo sapiens, UniProt P36888, D835V); details: read-out: Percent Control
[20] = biological target: 468 kinases including some pathogenic mutants (Homo sapiens, UniProt Q86UE8); details: TLK2 (Entrez TLK2), 1000 nM; read-out: Percent Control
468 kinases including some pathogenic mutants (Homo sapiens, UniProt Q86UE8), sequence (Q86UE8 whole entry, change not shown): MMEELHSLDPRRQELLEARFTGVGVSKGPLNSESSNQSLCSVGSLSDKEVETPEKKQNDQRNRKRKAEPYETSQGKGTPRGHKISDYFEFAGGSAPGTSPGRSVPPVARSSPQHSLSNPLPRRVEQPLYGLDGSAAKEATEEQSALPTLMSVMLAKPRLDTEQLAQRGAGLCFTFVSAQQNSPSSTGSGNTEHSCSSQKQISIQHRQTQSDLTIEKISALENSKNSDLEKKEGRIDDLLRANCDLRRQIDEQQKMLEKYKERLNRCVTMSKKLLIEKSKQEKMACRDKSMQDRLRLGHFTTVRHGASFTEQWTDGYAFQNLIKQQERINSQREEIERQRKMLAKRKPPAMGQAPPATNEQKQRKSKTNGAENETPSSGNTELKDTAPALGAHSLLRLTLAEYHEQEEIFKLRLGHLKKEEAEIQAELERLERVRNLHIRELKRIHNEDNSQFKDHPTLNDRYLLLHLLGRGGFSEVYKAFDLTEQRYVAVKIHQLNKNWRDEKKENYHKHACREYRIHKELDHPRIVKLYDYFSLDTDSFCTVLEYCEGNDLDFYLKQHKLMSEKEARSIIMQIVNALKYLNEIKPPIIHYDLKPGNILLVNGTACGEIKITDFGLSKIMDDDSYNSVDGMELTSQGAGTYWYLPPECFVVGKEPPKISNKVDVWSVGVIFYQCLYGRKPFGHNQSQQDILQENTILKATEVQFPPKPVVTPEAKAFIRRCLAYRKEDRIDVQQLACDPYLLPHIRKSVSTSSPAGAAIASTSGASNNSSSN

[21] = biological target: 468 kinases including some pathogenic mutants (Homo sapiens, UniProt Q13882); details: BRK (Entrez PTK6), 100 nM; read-out: Percent Control
468 kinases including some pathogenic mutants (Homo sapiens, UniProt Q13882), sequence (Q13882 whole entry, change not shown): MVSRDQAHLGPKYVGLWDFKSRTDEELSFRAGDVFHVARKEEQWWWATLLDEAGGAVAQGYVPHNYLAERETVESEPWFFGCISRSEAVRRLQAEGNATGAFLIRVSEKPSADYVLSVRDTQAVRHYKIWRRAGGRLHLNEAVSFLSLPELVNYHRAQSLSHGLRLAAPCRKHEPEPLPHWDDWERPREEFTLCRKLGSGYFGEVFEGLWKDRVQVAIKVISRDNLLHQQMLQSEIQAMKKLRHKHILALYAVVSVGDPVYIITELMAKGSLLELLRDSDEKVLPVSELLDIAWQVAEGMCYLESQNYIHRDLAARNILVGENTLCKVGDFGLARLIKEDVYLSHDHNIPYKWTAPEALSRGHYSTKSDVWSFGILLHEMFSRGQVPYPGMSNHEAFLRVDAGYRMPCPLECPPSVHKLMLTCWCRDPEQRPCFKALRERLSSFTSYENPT

[22] = biological target: 468 kinases including some pathogenic mutants (Homo sapiens, UniProt Q9UIK4); details: DAPK2 (Entrez DAPK2), 100 nM; read-out: Percent Control
[23] = biological target: 468 kinases including some pathogenic mutants (Homo sapiens, UniProt P00519, E255K); details: read-out: Percent Control
[24] = biological target: 468 kinases including some pathogenic mutants (Homo sapiens, UniProt P53778); details: p38-gamma (Entrez MAPK12), 100 nM; read-out: Percent Control
468 kinases including some pathogenic mutants (Homo sapiens, UniProt P53778), sequence (P53778 whole entry, change not shown): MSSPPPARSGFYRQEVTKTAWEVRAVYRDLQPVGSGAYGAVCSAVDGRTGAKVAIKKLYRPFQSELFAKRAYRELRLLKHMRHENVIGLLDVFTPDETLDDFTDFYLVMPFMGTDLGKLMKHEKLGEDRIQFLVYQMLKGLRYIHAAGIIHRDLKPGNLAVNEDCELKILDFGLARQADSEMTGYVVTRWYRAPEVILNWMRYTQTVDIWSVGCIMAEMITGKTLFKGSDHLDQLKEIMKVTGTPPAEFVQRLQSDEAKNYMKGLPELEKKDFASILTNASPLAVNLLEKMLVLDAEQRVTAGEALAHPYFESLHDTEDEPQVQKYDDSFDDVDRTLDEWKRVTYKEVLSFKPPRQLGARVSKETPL

[25] = biological target: 468 kinases including some pathogenic mutants (Homo sapiens, UniProt Q86Y07); details: VRK2 (Entrez VRK2), 1000 nM; read-out: Percent Control
[26] = biological target: 468 kinases including some pathogenic mutants (Homo sapiens, UniProt Q8IYT8); details: ULK2 (Entrez ULK2), 1000 nM; read-out: Percent Control
468 kinases including some pathogenic mutants (Homo sapiens, UniProt Q8IYT8), sequence (Q8IYT8 whole entry, change not shown): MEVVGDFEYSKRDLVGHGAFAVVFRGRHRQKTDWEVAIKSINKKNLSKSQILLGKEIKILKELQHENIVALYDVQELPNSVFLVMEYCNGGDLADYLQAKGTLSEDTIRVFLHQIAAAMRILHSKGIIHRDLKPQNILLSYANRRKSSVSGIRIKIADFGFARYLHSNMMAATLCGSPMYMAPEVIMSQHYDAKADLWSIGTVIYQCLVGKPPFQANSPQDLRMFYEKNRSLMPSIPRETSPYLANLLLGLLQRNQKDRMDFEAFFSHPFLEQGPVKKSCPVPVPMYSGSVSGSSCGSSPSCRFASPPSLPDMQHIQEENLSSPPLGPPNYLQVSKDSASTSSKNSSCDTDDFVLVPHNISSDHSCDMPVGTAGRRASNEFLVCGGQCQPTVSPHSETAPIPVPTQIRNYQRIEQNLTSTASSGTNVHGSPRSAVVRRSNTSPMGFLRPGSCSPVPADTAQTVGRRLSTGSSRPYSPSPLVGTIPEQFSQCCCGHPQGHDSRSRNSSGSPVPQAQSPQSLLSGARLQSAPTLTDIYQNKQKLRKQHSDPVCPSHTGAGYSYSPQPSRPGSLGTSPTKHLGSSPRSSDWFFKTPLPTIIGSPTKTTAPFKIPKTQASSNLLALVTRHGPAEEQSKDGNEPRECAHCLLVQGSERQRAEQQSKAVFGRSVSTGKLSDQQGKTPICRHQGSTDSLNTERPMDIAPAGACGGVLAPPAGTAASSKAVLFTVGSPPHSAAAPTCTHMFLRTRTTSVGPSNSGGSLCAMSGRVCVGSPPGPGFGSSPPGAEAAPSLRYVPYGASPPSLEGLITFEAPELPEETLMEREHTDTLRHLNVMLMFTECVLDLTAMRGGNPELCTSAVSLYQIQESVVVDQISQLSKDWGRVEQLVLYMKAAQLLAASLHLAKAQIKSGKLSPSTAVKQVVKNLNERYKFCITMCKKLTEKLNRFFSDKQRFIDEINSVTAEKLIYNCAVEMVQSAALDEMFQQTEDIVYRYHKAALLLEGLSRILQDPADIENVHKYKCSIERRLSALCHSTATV

[27] = biological target: 468 kinases including some pathogenic mutants (Homo sapiens, UniProt Q8TDC3); details: BRSK1 (Entrez BRSK1), 100 nM; read-out: Percent Control
468 kinases including some pathogenic mutants (Homo sapiens, UniProt Q8TDC3), sequence (Q8TDC3 whole entry, change not shown): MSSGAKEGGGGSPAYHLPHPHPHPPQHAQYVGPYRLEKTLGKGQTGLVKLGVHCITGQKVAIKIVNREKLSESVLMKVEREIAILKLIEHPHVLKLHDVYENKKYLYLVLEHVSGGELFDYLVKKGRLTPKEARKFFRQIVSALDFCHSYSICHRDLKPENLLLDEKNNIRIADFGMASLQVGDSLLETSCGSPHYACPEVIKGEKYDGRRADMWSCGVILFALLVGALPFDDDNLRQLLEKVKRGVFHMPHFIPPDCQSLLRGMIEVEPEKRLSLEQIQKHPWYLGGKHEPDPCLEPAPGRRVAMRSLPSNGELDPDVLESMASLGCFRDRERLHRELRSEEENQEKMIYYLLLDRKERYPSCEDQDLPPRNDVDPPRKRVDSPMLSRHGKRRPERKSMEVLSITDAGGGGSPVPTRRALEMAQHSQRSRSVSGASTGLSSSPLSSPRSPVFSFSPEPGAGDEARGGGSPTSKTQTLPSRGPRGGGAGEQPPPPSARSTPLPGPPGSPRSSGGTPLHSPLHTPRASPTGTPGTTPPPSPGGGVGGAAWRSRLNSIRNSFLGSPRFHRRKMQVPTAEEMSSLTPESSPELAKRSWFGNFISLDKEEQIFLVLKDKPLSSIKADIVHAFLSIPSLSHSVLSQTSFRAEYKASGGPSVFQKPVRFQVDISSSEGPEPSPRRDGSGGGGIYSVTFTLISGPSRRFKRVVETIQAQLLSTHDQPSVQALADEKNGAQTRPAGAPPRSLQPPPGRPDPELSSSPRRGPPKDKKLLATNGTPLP

[28] = biological target: 468 kinases including some pathogenic mutants (Homo sapiens, UniProt P43403); details: ZAP70 (Entrez ZAP70), 1000 nM; read-out: Percent Control
[29] = biological target: 468 kinases including some pathogenic mutants (Homo sapiens, UniProt P11309); details: PIM1 (Entrez PIM1), 100 nM; read-out: Percent Control

468 kinases including some pathogenic mutants (Homo sapiens, UniProt P15056), sequence (P15056 whole entry, stated change not applied): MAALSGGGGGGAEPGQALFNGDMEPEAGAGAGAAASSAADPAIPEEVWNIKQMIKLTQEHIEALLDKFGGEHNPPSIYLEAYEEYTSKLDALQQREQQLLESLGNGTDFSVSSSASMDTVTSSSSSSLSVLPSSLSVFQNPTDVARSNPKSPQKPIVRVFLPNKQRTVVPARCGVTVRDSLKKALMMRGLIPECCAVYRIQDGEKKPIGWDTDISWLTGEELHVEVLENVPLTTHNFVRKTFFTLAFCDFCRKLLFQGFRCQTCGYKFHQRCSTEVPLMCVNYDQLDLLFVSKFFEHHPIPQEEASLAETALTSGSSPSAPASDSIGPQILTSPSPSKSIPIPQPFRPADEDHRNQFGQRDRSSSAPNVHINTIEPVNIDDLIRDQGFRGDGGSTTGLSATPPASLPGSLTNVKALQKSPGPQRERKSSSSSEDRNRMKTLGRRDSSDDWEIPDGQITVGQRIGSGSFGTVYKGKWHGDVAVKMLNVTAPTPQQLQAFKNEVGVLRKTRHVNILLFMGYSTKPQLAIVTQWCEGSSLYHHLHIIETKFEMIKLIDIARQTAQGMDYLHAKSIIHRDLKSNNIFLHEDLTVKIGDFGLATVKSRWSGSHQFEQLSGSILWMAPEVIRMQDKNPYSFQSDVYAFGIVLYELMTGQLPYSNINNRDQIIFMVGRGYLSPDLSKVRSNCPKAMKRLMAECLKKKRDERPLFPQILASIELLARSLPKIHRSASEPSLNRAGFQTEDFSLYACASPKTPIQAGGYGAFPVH

CN1C(=O)[C@@H](N2CCc3c(nn(Cc4ccccc4)c3C(N)=O)C2=O)COc2cc(Cl)ccc21 [Compound 10, (S)-2-benzyl-6-(8-chloro-5-methyl-4-oxo-2,3,4,5-tetrahydrobenzo[b][1,4]oxazepin-3-yl)-7-oxo-4,5,6,7-tetrahydro-2H-pyrazolo[3,4-c]pyridine-3-carboxamide]
remaining activity at 0.1 µM [1]: 58%
remaining activity at 0.1 µM [2]: 87%
remaining activity at 0.1 µM [3]: 58%
remaining activity at 0.1 µM [4]: 80%
remaining activity at 0.1 µM [5]: 58%
remaining activity at 0.1 µM [6]: 90%
remaining activity at 0.1 µM [7]: 67%
remaining activity at 0.1 µM [8]: 91%
remaining activity at 0.1 µM [9]: 91%
remaining activity at 1 µM [10]: 100%
remaining activity at 0.1 µM [11]: 91%
remaining activity at 1 µM [12]: 100%
remaining activity at 0.1 µM [13]: 55%
remaining activity at 0.1 µM [14]: 77%
remaining activity at 0.1 µM [15]: 78%
remaining activity at 0.1 µM [16]: 69%
remaining activity at 0.1 µM [17]: 96%
remaining activity at 0.1 µM [18]: 65%
remaining activity at 0.1 µM [19]: 88%
remaining activity at 1 µM [20]: 100%
remaining activity at 0.1 µM [21]: 81%
remaining activity at 0.1 µM [22]: 70%
remaining activity at 0.1 µM [23]: 84%
remaining activity at 0.1 µM [24]: 65%
remaining activity at 1 µM [25]: 100%
remaining activity at 1 µM [26]: 100%
remaining activity at 0.1 µM [27]: 91%
remaining activity at 1 µM [28]: 100%
remaining activity at 0.1 µM [29]: 93%
